From patent publication US20150329498A1, “IRAK INHIBITORS AND USES THEREOF” (Nimbus Iris, Inc., priority 2014, published 2015) come the findings set out here.

For assay [1], the target named is T1, IRAK4 (Homo sapiens, UniProt Q9NWZ3).
T1 construct: purchased CARNA Bioscience 09-145
T1 sequence (Q9NWZ3 1-460): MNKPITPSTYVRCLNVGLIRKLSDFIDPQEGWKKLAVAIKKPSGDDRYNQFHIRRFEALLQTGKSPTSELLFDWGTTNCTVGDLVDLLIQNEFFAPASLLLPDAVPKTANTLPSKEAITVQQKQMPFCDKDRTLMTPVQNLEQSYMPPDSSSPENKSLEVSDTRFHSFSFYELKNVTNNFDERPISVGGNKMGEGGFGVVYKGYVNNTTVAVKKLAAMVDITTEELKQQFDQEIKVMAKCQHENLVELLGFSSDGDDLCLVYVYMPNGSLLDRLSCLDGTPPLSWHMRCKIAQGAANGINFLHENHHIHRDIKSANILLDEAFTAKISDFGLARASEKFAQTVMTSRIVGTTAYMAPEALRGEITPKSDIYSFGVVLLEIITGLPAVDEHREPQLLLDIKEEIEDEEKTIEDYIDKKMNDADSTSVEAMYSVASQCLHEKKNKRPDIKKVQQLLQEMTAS
The assay is described as follows: IRAK-4 activity inhibition assay (Caliper). In kind it is biochemical. The following applies: 3.5 nM IRAK4, 1.5 μM Peptide 8, 37 μM ATP. On the procedure: A 1x kinase base buffer was prepared from 50 mM HEPES, pH 7.5 and 0.0015% Brij-35. A stop buffer was prepared from 100 mM HEPES, pH 7.5, 0.015% Brij-35, 0.2% Coating Reagent #3, and 50 mM EDTA.
Test compound was diluted to 50× of the final desired highest inhibitor concentration in reaction by 100% DMSO. 100 ul of this compound dilution was transferred to a well in a 96-well plate. For example, if desired highest inhibitor concentration in IC50 determination is 100 uM, then prepare 5000 uM of compound DMSO solution in this step.
Test compound was serially diluted by transferring 30 μl to 60 μl of 100% DMSO in the next well and so forth for a total of 10 concentrations. 100 μl of 100% DMSO was added to two empty wells for no compound control and no enzyme control in the same 96-well plate.
A new 96-well plate was marked as intermediate plate. 5 μl of compound serial dilution was transferred from source plate to the corresponding wells of the intermediate plate. 45 μl of 1x kinase base buffer (KB buffer) was added to each well of the intermediate plate. The intermediate plate was placed for 10 min on a shaker.
5 μl of each well was transferred from the 96-well intermediate plate to a 384-well plate in duplicates. For example, A1 of the 96-well plate is transferred to A1 and A2 of the 384-well plate. A2 of the 96-well plate is transferred to A3 and A4 of the 384-well plate, and so on.
IRAK4 and DTT in 1x kinase base buffer was added. The 2.5x enzyme mix contained 8.8 nM IRAK4 and 5 mM DTT.
Peptide 8, ATP, MgCl2 and MnCl2 were added in the 1x kinase base buffer. The 2.5x peptide mix contained 3.75 μM peptide 8, 92.5 μM ATP, 12.5 mM MgCl2 and 2.5 mM MnCl2.
Assay plate already contained 5 μl of compound in 10% DMSO. Added 10 μl of 2.5x enzyme solution to each well of the 384-well assay plate, except no enzyme control wells. The final concentration of IRAK4 in reaction was 3.5 nM. Added 10 μl of 1x kinase base buffer to no enzyme control wells in the assay plate. Incubated at room temperature for 10 min.
Added 10 μl of 2.5x peptide solution to each well of the 384-well assay plate. The final concentration of Peptide 8 and ATP was 1.5 μM and 37 μM, respectively. Incubated at for 40 minutes. Added 25 μl of stop buffer to stop reaction. Collected data on Caliper.
Copied conversion % data from Caliper program. Converted conversion % values to percent inhibition values. Percent inhibition=(max−conversion %)/(max−min)*100, where “max” means the conversion % of DMSO control and “min” means the conversion % of no enzyme control.
The compound numbers correspond to the compound numbers in Table 1. Compounds having an activity designated as “A” provided an IC50≦5 μM; compounds having an activity designated as “B” provided an IC50 of 5-20 μM; compounds having an activity designated as “C” provided an IC50 of 20-50 μM; and compounds having an activity designated as “D” provided an IC50≧50 μM. “NA” stands for “not assayed.”

For assay [2], the system named is TNFα production in THP-1 cells. In words: LPS induced TNFα production assay in THP-1 cells. The assay is classed as cell-based. The note with it: Homo sapiens, 300 ng/mL LPS, measured at 5 hours. On the procedure:
(§1) Provided compounds were also assayed in an LPS (Lipopolysaccharide) or R848 (TLR-7 agonist) induced cytokine (TNFα and IL8) production assay in THP-1 cells, human white blood cells (hWBC), and human whole blood. The exemplary protocol for this assay in THP-1 cells was as follows below.
(§2) THP-1 cells from ATCC (TIB-202) were cultured in RPMI Medium 1640 (Invitrogen, Cat No. A10491-01), 10% fetal bovine serum (Invitrogen, Cat No. 10099141, Lot No. 8172882) containing 100 U/mL Penicillin, 100 μg/mL streptomycin (Invitrogen, Cat No. 15140-122), and 50 uM 2-Mercaptoethanol (Invitrogen, Cat No. 21985023). LPS-EK ultra pure (Invivogen, Cat No. tlrl-peklps) was used to induce IL8 and TNFα production, that was detected in the cell culture supernatant by IL8 HTRF kit (Cisbio, Cat No. 62IL8PEB) and TNFα HTRF kit (Cisbio, Cat No. 62TNFPEB), as per manufacturer instructions. Cells were cultured in 96 well assay plates at 100,000 cells per well, and compounds diluted in final 0.3% DMSO were pre-incubated with cells for 1 hour prior to stimulation with 300 ng/mL LPS. Cytokine production in cell supernatant was measured at 5 hours for TNFα production, and at 16 hours for IL8 production and assessment of cell viability.
(§3) The compound numbers correspond to the compound numbers in Table 1. Compounds having an activity designated as “A” provided an IC50≦0.5 μM; compounds having an activity designated as “B” provided an IC50 of 0.5-5.0 μM; compounds having an activity designated as “C” provided an IC50>5.0 μM. “NA” stands for “not assayed.”

Assay [3] deals with IL8 production in THP-1 cells. The assay is described as follows: LPS induced IL8 production assay in THP-1 cells. The assay is classed as cell-based. The note with it: Homo sapiens, 300 ng/mL LPS, measured at 16 hours. The procedure: as §1, §2, §3

`C#Cc1ccc2ncnc(N[C@H]3CC[C@H](N4CCOCC4)CC3)c2c1` [Compound I-35, 6-ethynyl-N-((1r,4r)-4-morpholinocyclohexyl)quinazolin-4-amine]: the IC50 was at most 5 µM in assay [1], 0.5 to 5 µM in assay [2] and at most 0.5 µM in assay [3].
With `N#Cc1ccc2ncnc(N[C@H]3CC[C@H](N4CCC5(CC4)COC5)CC3)c2c1` [Compound I-14, 4-(((1r,4r)-4-(2-oxa-7-azaspiro[3.5]nonan-7-yl)cyclohexyl)amino)-quinazoline-6-carbonitrile], the half-maximal inhibitory concentration (IC50) is at most 5 µM in assay [1], at most 0.5 µM in assay [2] and at most 0.5 µM in assay [3].
As for `Cn1cc(Nc2nc(N[C@H]3CC[C@H](N4CCOCC4)CC3)c3cc(Br)ccc3n2)cn1` [Compound I-10, 6-bromo-N2-(1-methyl-1H-pyrazol-4-yl)-N4-((1r,4r)-4-morpholinocyclohexyl)quinazoline-2,4-diamine], the IC50 in assay [1] was at most 5 µM; in assay [2] it was at most 0.5 µM; in assay [3], at most 0.5 µM.
As for `CS(=O)(=O)CCCn1cc(Nc2nc(N[C@H]3CC[C@H](N4CCOCC4)CC3)c3cc(C#N)ccc3n2)cn1` [Compound I-25, 2-((1-(3-(methylsulfonyl)propyl)-1H-pyrazol-4-yl)amino)-4-(((1r,4r)-4-morpholinocyclohexyl)amino)quinazoline-6-carbonitrile], the IC50 in assay [1] was at most 5 µM; in assay [2], 0.5 to 5 µM; in assay [3], 0.5 to 5 µM.
Consider `c1nc(O[C@H]2CC[C@H](N3CCOCC3)CC2)c2c3c(ccc2n1)CCC3` [Compound I-31, 4-((1r,4r)-4-((8,9-dihydro-7H-cyclopenta[f]quinazolin-1-yl)oxy)cyclohexyl)morpholine], for which the IC50 was at most 5 µM in assay [1], 0.5 to 5 µM in assay [2] and at most 0.5 µM in assay [3].
Taken in the same sequence, the figures for `N#Cc1ccc2nc(Nc3cnn(CCO)c3)nc(N[C@H]3CC[C@H](N4CCOCC4)CC3)c2c1` [Compound I-22, 2-((1-(2-hydroxyethyl)-1H-pyrazol-4-yl)amino)-4-(((1r,4r)-4-morpholinocyclohexyl)amino)quinazoline-6-carbonitrile] were at most 5 µM, 0.5 to 5 µM and at most 0.5 µM.
On the same counts, the results for `CN(C)[C@H]1CC[C@H](Nc2ncnc3ccc(CC#N)cc23)CC1` [Compound I-53, 2-(4-(((1r,4r)-4-(dimethylamino)cyclohexyl)amino)quinazolin-6-yl)acetonitrile] are at most 5 µM, 0.5 to 5 µM and at most 0.5 µM.
Take `Clc1ccc2ncnc(N[C@H]3CC[C@H](N4CCOCC4)CC3)c2c1` [Compound I-26, 6-chloro-N-((1r,4r)-4-morpholinocyclohexyl)quinazolin-4-amine]: the IC50 was at most 5 µM in assay [1], at most 0.5 µM in assay [2] and at most 0.5 µM in assay [3].
On to `N#Cc1ccc2nc(Nc3cnn(CCOCCO)c3)nc(N[C@H]3CC[C@H](N4CCOCC4)CC3)c2c1` [Compound I-24, 2-((1-(2-(2-hydroxyethoxy)ethyl)-1H-pyrazol-4-yl)amino)-4-(((1r,4r)-4-morpholinocyclohexyl)amino)quinazoline-6-carbonitrile], for which the IC50 was at most 5 µM in assay [1], 0.5 to 5 µM in assay [2] and at most 0.5 µM in assay [3].
On the same counts, the results for `Brc1ccc2ncnc(N[C@H]3CC[C@H](N4CCOCC4)CC3)c2c1` [Compound I-2, 6-bromo-N-((1r,4r)-4-morpholinocyclohexyl)quinazolin-4-amine] are at most 5 µM, at most 0.5 µM and at most 0.5 µM.
On the same counts, the results for `CCc1ccc2ncnc(N[C@H]3CC[C@H](N4CCOCC4)CC3)c2c1` [Compound I-15, 6-ethyl-N-((1r,4r)-4-morpholinocyclohexyl)quinazolin-4-amine] are at most 5 µM, at most 0.5 µM and at most 0.5 µM.
As to `N#Cc1ccc2nc(Nc3cnn(C4CCOCC4)c3)nc(N[C@H]3CC[C@H](N4CCOCC4)CC3)c2c1` [Compound I-16, 4-(((1r,4r)-4-morpholinocyclohexyl)amino)-2-((1-(tetrahydro-2H-pyran-4-yl)-1H-pyrazol-4-yl)amino)quinazoline-6-carbonitrile], the IC50 in assay [1] is at most 5 µM; in assay [2], at most 0.5 µM; in assay [3] it was at most 0.5 µM.
With `OC/C=C/c1ccc2ncnc(N[C@H]3CC[C@H](N4CCOCC4)CC3)c2c1` [Compound I-41, (E)-3-(4-(((1r,4r)-4-morpholinocyclohexyl)amino)quinazolin-6-yl)prop-2-en-1-ol], the IC50 was at most 5 µM in assay [1], at most 0.5 µM in assay [2] and at most 0.5 µM in assay [3].
In the case of `Cn1cc(Nc2nc(N[C@H]3CC[C@H](N4CCOCC4)CC3)c3cc(C#N)ccc3n2)cn1` [Compound I-11, 2-((1-methyl-1H-pyrazol-4-yl)amino)-4-(((1r,4r)-4-morpholino-cyclohexyl)amino)quinazoline-6-carbonitrile], the IC50 in assay [1] was at most 5 µM; in assay [2] it was at most 0.5 µM; in assay [3], at most 0.5 µM.
`N#CCc1ccc2ncnc(N[C@H]3CC[C@H](N4CCC5(CC4)COC5)CC3)c2c1` [Compound I-58, 2-(4-(((1r,4r)-4-(2-oxa-7-azaspiro[3.5]nonan-7-yl)cyclohexyl)-amino)quinazolin-6-yl)acetonitrile]: the IC50 in assay [1] was at most 5 µM; in assay [2], at most 0.5 µM; in assay [3] it was at most 0.5 µM.
For the compound `Cc1cc(Nc2nc(N[C@H]3CC[C@H](N4CCOCC4)CC3)c3cc(Br)ccc3n2)sn1` [Compound I-56, 6-bromo-N2-(3-methylisothiazol-5-yl)-N4-((1r,4r)-4-morpholin-ocyclohexyl)quinazoline-2,4-diamine], the IC50 in assay [1] is at most 5 µM; in assay [2] it was at most 0.5 µM; in assay [3] it was at most 0.5 µM.
